# Strand notation (5' to 3'): a small letter for the sugar, then the base; units joined by * are phosphorothioate-linked, units joined directly phosphodiester-linked; [ ] holds rarer units or linkages, { } end groups; capitals alone tell only the bases. k = constrained ethyl (cEt); [5mC] = 5-methylcytosine; d = 2'-deoxy (DNA)
# Tested on: Yap1 mRNA
# Assay: Antisense inhibition of human Yap1 in A-431 cells by cEt gapmers, single dose (Example 3, RTS36584)
# Format: cell-based
# Conditions: Table 8; A-431 cells, 5,000 cells per well, free uptake, 2,000 nM, approximately 48 hours; RTS36584; normalized to RIBOGREEN; Yap1 mRNA relative to untreated control cells
# How it was run: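 Free uptake, 2,000 nM, ~48 h, A-431 cells. Gapmers: 16-mer 3-10-3 cEt wings, PS backbone, 5-MeC. Readout qRT-PCR, RiboGreen-normalized, % UTC.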
row,Substance,YAP1 (% UTC)
1,958369 (antisense kT*kT*kA*dT*d[5mC]*dT*dA*dG*d[5mC]*dT*dT*dG*dG*kT*kG*kG) [Compound 958369],4
2,958374 (antisense k[5mC]*kA*kG*dA*dG*dG*dT*dG*d[5mC]*dT*dA*dG*d[5mC]*kT*kG*kG) [Compound 958374],38
3,958368 (antisense kA*kT*k[5mC]*dT*dA*dG*d[5mC]*dT*dT*dG*dG*dT*dG*kG*k[5mC]*kA) [Compound 958368],11
4,958389 (antisense k[5mC]*kG*kG*dA*dG*dG*d[5mC]*dG*d[5mC]*dG*d[5mC]*dG*d[5mC]*kA*kT*kT) [Compound 958389],126

# Same assay, conditions: Table 9; A-431 cells, 5,000 cells per well, free uptake, 2,000 nM, approximately 48 hours; RTS36584; normalized to RIBOGREEN; Yap1 mRNA relative to untreated control cells
row,Substance,YAP1 (% UTC)
1,958536 (kA*kG*kG*dG*dT*d[5mC]*dA*dA*dT*dT*dT*dT*d[5mC]*kA*kG*k[5mC]; antisense) [Compound 958536],3
2,958516 (k[5mC]*kT*kG*d[5mC]*dA*dG*dA*d[5mC]*dT*dG*d[5mC]*d[5mC]*d[5mC]*k[5mC]*kA*kA; antisense) [Compound 958516],38
3,958441 (antisense kG*k[5mC]*kG*dA*d[5mC]*dG*dG*d[5mC]*dT*dG*d[5mC]*dG*dG*kG*k[5mC]*k[5mC]) [Compound 958441],72

# Same assay, conditions: Table 10; A-431 cells, 5,000 cells per well, free uptake, 2,000 nM oligonucleotide, approx. 48 hours; primer probe set RTS36584; Yap1 mRNA normalized to RIBOGREEN, percent of untreated control
row,Substance,YAP1 (% UTC)
1,958492 (kT*kG*kT*d[5mC]*dA*dG*dA*d[5mC]*d[5mC]*dA*dG*dT*dA*kA*kA*kT; antisense) [Compound 958492],12
2,958617 (antisense kG*kA*kG*dG*dT*dG*dG*dT*d[5mC]*dT*dT*dG*dT*kT*k[5mC]*kT) [Compound 958617],40
3,958552 (kT*kA*kT*dT*dA*d[5mC]*dT*d[5mC]*d[5mC]*dT*dG*dT*dA*kG*kA*k[5mC]; antisense) [Compound 958552],16
4,958662 (kG*kA*kA*d[5mC]*dA*dG*dA*dT*dA*dG*dG*dA*d[5mC]*kT*kA*k[5mC]; antisense) [Compound 958662],51
5,958737 (antisense kG*kG*kA*dA*dT*dA*d[5mC]*dA*dA*dG*d[5mC]*d[5mC]*d[5mC]*kG*kA*kG) [Compound 958737],8

# Same assay, conditions: Table 11; A-431 cells, 5,000 cells per well, free uptake, 2,000 nM oligonucleotide, approx. 48 hours; primer probe set RTS36584; Yap1 mRNA normalized to RIBOGREEN, percent of untreated control
row,Substance,YAP1 (% UTC)
1,958648 (kG*kA*kA*dT*dA*d[5mC]*dT*dG*dA*dG*dT*d[5mC]*dA*kG*kG*kA; antisense) [Compound 958648],7
2,958613 (antisense k[5mC]*k[5mC]*kT*dG*dA*dA*dG*d[5mC]*d[5mC]*dG*dA*dG*dT*kT*k[5mC]*kA) [Compound 958613],15
3,958678 (kG*kG*kA*dG*dG*dA*dG*dT*d[5mC]*dA*d[5mC]*d[5mC]*dA*kT*kG*kG; antisense) [Compound 958678],74
4,958813 (kT*kT*kA*d[5mC]*dA*dG*dA*dG*dA*dG*dA*dT*dT*k[5mC]*kA*kT; antisense) [Compound 958813],8
5,958698 (antisense k[5mC]*kT*kT*dA*dT*dT*dA*dG*d[5mC]*d[5mC]*d[5mC]*dT*d[5mC]*kA*kA*kA) [Compound 958698],30

# Same assay, conditions: Table 12; A-431 cells, 5,000 cells per well, free uptake, 2,000 nM modified oligonucleotide, approx. 48 hours; RTS36584; normalized to RIBOGREEN; Yap1 mRNA relative to untreated control cells
row,Substance,YAP1 (% UTC)
1,958479 (antisense kA*kT*kG*dG*dA*dA*dA*dT*dT*dT*d[5mC]*d[5mC]*dG*kG*kT*kG) [Compound 958479],15
2,958439 (antisense kG*k[5mC]*kG*d[5mC]*d[5mC]*d[5mC]*d[5mC]*dG*dG*d[5mC]*dT*d[5mC]*d[5mC]*kA*k[5mC]*kT) [Compound 958439],77
3,958514 (kT*kA*k[5mC]*dT*dA*dG*dT*d[5mC]*dA*dT*dG*dT*dA*kT*kT*k[5mC]; antisense) [Compound 958514],20
4,958519 (k[5mC]*k[5mC]*k[5mC]*d[5mC]*dT*dA*dG*dG*d[5mC]*dA*d[5mC]*dT*dA*kT*k[5mC]*k[5mC]; antisense) [Compound 958519],20
5,958679 (kG*kT*kA*dA*d[5mC]*dT*dG*d[5mC]*d[5mC]*dA*d[5mC]*dA*dG*kT*kT*kA; antisense) [Compound 958679],77
6,958569 (kA*kG*k[5mC]*d[5mC]*dT*dT*dA*dG*dA*dG*dT*d[5mC]*dA*kA*kT*kT; antisense) [Compound 958569],3

# Same assay, conditions: Table 13; A-431 cells, 5,000 cells per well, free uptake, 2,000 nM modified oligonucleotide, approx. 48 hours; RTS36584; normalized to RIBOGREEN; Yap1 mRNA relative to untreated control cells
row,Substance,YAP1 (% UTC)
1,958810 (kT*kT*kA*dT*dA*dT*dA*d[5mC]*dG*dG*dG*dA*dA*kA*kA*kT; antisense) [Compound 958810],47
2,958445 (antisense kG*kG*k[5mC]*dT*dA*d[5mC]*dG*d[5mC]*d[5mC]*d[5mC]*dG*dG*dA*k[5mC]*kG*k[5mC]) [Compound 958445],63
3,958785 (antisense kG*k[5mC]*kA*dA*dT*d[5mC]*d[5mC]*dA*d[5mC]*dA*dA*dT*dT*k[5mC]*k[5mC]*kA) [Compound 958785],2

# Same assay, conditions: Table 26; Yap1 mRNA by 3-10-3 cEt gapmers targeting SEQ ID NO.: 1, and 2; percent of untreated control
row,Substance,YAP1 (% UTC)
1,1076236 (kG*kG*kA*dG*dA*dA*d[5mC]*d[5mC]*dT*dT*dA*dT*dT*kT*kA*kT; antisense) [compound 1076236],51
2,1074188 (antisense kG*k[5mC]*kT*dG*d[5mC]*dG*dA*dA*dG*dG*d[5mC]*dG*dG*k[5mC]*kT*kG) [compound 1074188],113

# Same assay, conditions: Table 27; Yap1 mRNA by 3-10-3 cEt gapmers targeting SEQ ID NO.: 1, and 2; percent of untreated control
row,Substance,YAP1 (% UTC)
1,1075629 (antisense kG*k[5mC]*k[5mC]*dG*d[5mC]*dA*dA*dA*dA*dT*dA*dT*dT*kA*kA*kT) [compound 1075629],100
2,1074637 (antisense kA*kA*kT*d[5mC]*dT*dA*dT*d[5mC]*dT*dT*d[5mC]*d[5mC]*d[5mC]*kA*kA*kG) [compound 1074637],36
3,1074925 (antisense kG*k[5mC]*k[5mC]*dT*dG*d[5mC]*dA*dA*dA*dT*dA*dG*dG*kA*kG*kA) [compound 1074925],94

# Same assay, conditions: Table 28; Yap1 mRNA as percent of untreated control; 3-10-3 cEt gapmers targeting SEQ ID NO.: 1, and 2
row,Substance,YAP1 (% UTC)
1,1076046 (k[5mC]*kT*kT*dA*dA*dA*dT*dG*dG*dT*dG*d[5mC]*dA*kA*kT*kA; antisense) [compound 1076046],28
2,1074574 (DNA k[5mC]*kA*kT*dT*dA*dT*dG*dA*dA*d[5mC]*d[5mC]*dT*dA*k[5mC]*kT*k[5mC]) [compound 1074574],17
3,1075662 (antisense kA*kA*kG*dG*dG*dA*dT*dA*d[5mC]*dA*dA*dG*dT*kG*kT*kT) [compound 1075662],78
4,1075630 (antisense kT*kA*kT*dA*dA*d[5mC]*d[5mC]*dA*dA*dA*dT*dG*d[5mC]*k[5mC]*kG*k[5mC]) [compound 1075630],60
5,1074254 (antisense kA*kT*k[5mC]*dT*dG*dG*dG*dA*d[5mC]*dA*dG*d[5mC]*dA*kT*kG*kG) [compound 1074254],13
6,1076558 (kG*k[5mC]*k[5mC]*dA*dA*dA*dT*dA*dT*dT*dT*dA*dA*k[5mC]*kT*k[5mC]; antisense) [compound 1076558],30
7,1074894 (antisense kT*kG*k[5mC]*dT*dG*dA*dA*dG*dT*dT*dT*dA*dG*k[5mC]*k[5mC]*kT) [compound 1074894],79

# Same assay, conditions: Table 29; Yap1 mRNA as percent of untreated control; 3-10-3 cEt gapmers targeting SEQ ID NO.: 1, and 2
row,Substance,YAP1 (% UTC)
1,1075791 (k[5mC]*kT*kT*dT*dA*dT*d[5mC]*dA*dG*d[5mC]*d[5mC]*dA*dT*k[5mC]*kA*k[5mC]; antisense) [compound 1075791],10
2,1074799 (kT*kG*k[5mC]*dT*dT*dT*dG*dG*dA*dA*dG*dA*dT*k[5mC]*kT*kG) [compound 1074799],8

# Same assay, conditions: Table 34; Yap1 mRNA as percent of untreated control; 3-10-3 cEt gapmers targeting SEQ ID NO: 1 and 2; single dose
row,Substance,YAP1 (% UTC)
1,1074516 (kT*kT*kA*dA*d[5mC]*dT*dG*dG*dA*dA*dA*dG*d[5mC]*kA*kG*kG; antisense) [compound 1074516],22
2,1075636 (antisense k[5mC]*kA*kA*dT*dA*dA*dA*d[5mC]*dA*d[5mC]*d[5mC]*dT*d[5mC]*kG*k[5mC]*k[5mC]) [compound 1075636],91
3,1074292 (antisense k[5mC]*kT*kG*dT*dT*dT*d[5mC]*dA*d[5mC]*dT*dG*dG*dA*kG*k[5mC]*kA) [compound 1074292],10

# Same assay, conditions: Table 35; Yap1 mRNA as percent of untreated control; 3-10-3 cEt gapmers targeting SEQ ID NO: 1 and 2; single dose
row,Substance,YAP1 (% UTC)
1,1076469 (kG*kT*kA*dA*dA*dA*dG*dG*dG*dA*dA*d[5mC]*dT*kA*kA*kG; antisense) [compound 1076469],69
2,1075637 (antisense k[5mC]*k[5mC]*kA*d[5mC]*dA*dA*d[5mC]*d[5mC]*dT*dG*dT*d[5mC]*dA*kA*kT*kA) [compound 1075637],100
3,1074133 (kG*k[5mC]*kG*dG*d[5mC]*d[5mC]*d[5mC]*d[5mC]*dG*d[5mC]*dA*dT*d[5mC]*k[5mC]*k[5mC]*k[5mC]; antisense) [compound 1074133],101
